Measured values reported in patent publication US7091351B2, “Vanadium compounds for treating cancer” (Parker Hughes Institute, priority 1998, dated 2006).
Where “and” joins values, the source holds several entries; their conditions need not be identical. Equal values may be shown once. Read-outs that look alike come from different tables or passages of the source.

Legend:
Assay type in all cases: cell-based, human
[1] = test system: Tera-2 testicular cancer cells; test: MTT cytotoxicity assay of vanadocenes, TERA-2 cells; settings: 24 h, 1.9-250 μM
Procedure, shortened: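 IC50 values come from MTT colorimetry (540 nm) after 24 h drug treatment at 1.9–250 μM in two-fold steps, started 24 h post-seeding. Formazan formed over 4 h at 37 °C and was solubilized overnight in 10% SDS/0.1% HCl; triplicate wells, 0.25% DMSO solvent control.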

[2] = test system: NALM-6 B-lineage acute lymphoblastic leukemia cells; test: MTT cytotoxicity assay of vanadocenes, NALM-6 cells; settings: 24 h
Description: Human testicular cancer cell lines, Tera-2 (embryonal carcinoma) and Ntera-2 (pluripotent embryonal carcinoma) were obtained from the American Type Culture Collection (ATCC) (Rockeville, Md.) and propagated in T-25, T-75, or T-150 cm^2 tissue culture flasks (Corning Corp., Corning, N.Y.) in McCoy's 5A medium and Dulbecco's modified Eagle's medium respectively. Both media were supplemented with 10% fetal calf serum (FCS), 4 mM glutamine, 100 U/ml penicillin G, and […] streptomycin sulfate. All tissue culture reagents were obtained from Life Technologies Inc. (GIBCO-BRL), Gaithersburg, Md. Cell lines were cultivated for a minimum of two passages after thawing prior to experimentation. Other cell lines that were used in this study were the human B-lineage acute lymphoblastic leukemia (ALL) cell line NALM-6. Uckun, F. M., Evans, W. E., Forsyth, C. J., Waddick, K. G., Tuel-Ahlgren, L., Chelstrom, L. M., Burkhardt, A., Bolen, J., Myers, D. E. Biotherapy of B-cell precursor leukemia by targeting genistein to CD19-associated tyrosine kinase. Science (Washington DC) 267:886–91, 1995; T-lineage ALL cell line MOLT-3, Waurzyniak, B., Shneider, E. A., Tumer, N., Yanishevski, Y., Gunther, R., Chelstrom, L., Wendorf, H., Myers, D. E., Irvin, J. D., Messinger, Y., Ek, O., Zeren, T., Chandan-Langlie, M., Evans, W. E., Uckun, F. M. In vivo toxicity, pharmacokinetics, and antileukemic activity of TXU (anti-CD7)-pokeweed antiviral protein immunotoxin. Clinical Cancer Research 3:881–890, 1997; AML cell line HL-60, Perentesis, J. P., Waddick, K. G., Bendel, A. E., Shao, Y., Warman, B. E., Chandan-Langlie, M., and Uckun, F. M. Induction of apoptosis in multi-drug resistant andradiation-resistant acute myeloid leukemia cells by a recombinant fusion toxin directed against the granulocyte macrophage colony stimulating factor receptor. Clin. Cancer Res. 3:347–355, 1997; breast cancer cell lines MDA-MB-231 and BT-20, Uckun, F. M., Narla, R. K., Jun, X., Zeren, T., Venkatachalam, T., Waddick, K. G., Rostostev, A., Myers, D. E. Cytotoxic activity of EGF-genstein against breast cancer cells. Clin. Cancer Res. 4:901–912, 1998; glioblastoma cell lines U87 and U373, Narla, R. K., Liu, X., Myers, D. E., and Uckun, F. M. 4-(3′-Bromo-4′hydroxylphenyl)-amino-6,7-dimethoxyquinazoline (WHI-P154): A novel quinazoline derivative with potent cytotoxic activity against human glioblastoma cells. Clin. Cancer Res. 4:1405–1414, 1998.
MTT (3-[4,5-dimethyl thiazol-2-yl]-2,5-diphenyltetrazolium bromide)-based colorimetric assays were used for evaluation of the cytotoxicity of vanadocene compounds. Mosmann, T. Rapid colorimetric assay for cellular growth and survival: application to proliferation and cytotoxicity assays. J. Immunol. Methods, 65: 55–63, 1983. Briefly, cells were harvested with 0.125% (w/v) trypsin-0.02% EDTA (GIBCO-BRL) from exponential-phase maintenance cultures and centrifuged (300 g×5 min). After suspension and counting, cells were dispensed within triplicate 96-well tissue culture plates in 100 μl volumes. After 24 h incubation, the culture medium was discarded and replaced with 100 μl of fresh medium containing serial two-fold dilutions of drugs in medium to yield 1.9 μM to 250 μM. All compounds were reconstituted in DMSO to a concentration of 100 mM, and the stock solution was made fresh for each experiment. Control wells consisted of medium containing 0.25% of DMSO alone were used for solvent control. […]

NALM-6 leukemia cells = test: Mitochondrial transmembrane potential, DiIC1 staining, flow cytometry
Description: […] Mitochondrial membrane potential (ΔΨm) was measured using two dyes including a lipophollic cation 5,5′,6,6′-tetrachloro-1,1′,3,3′-tetraethlybenzimidazolylcarbocyanine iodide (JC-1; Molecular probes, Eugene, Oreg.) and a cyanine dye, 1,1′,3,3,3′,3′-hexamethylindodicarbocyanine iodide [DiIC1(5); Molecular probes] as earlier described (22). JC-1 can enter the cells, and selectively mitochondria, and has been used to assess ΔΨm in a variety of studies (23,24). JC-1 is a monomer at 527 nm after being excited at 490 nm; with polarization of ΔΨm, J-aggregates are formed that shift emission to 590 nm (23, 24). This can be detected on a flow cytometer by assessing the green signal (at 527 nm) and green-orange signal (at 590 nm) simultaneously, creating an index of the number of cells polarized and depolarized mitochondria. The treated and control cells were washed and plated in a 6-well plate at 1×10^6 cells in fresh medium. JC-1 was added at a concentration of 10 μg/ml, and cells were incubated for 10 min in the dark at room temp. Cells were then washed twice with ice-cold PBS and immediately analyzed using Becton Dickinson (San Jose, Calif.) Calibur flow cytometer. At least 2×10^3 cells were analyzed to determine the percentage of cells with polarized and depolarized mitochondria. DiIC1(5), a cyanine dye is amphioatheic and cationic that concentrate in energized mitochondria and has been used in a variety of studies to measure the mitochondrial membrane potential (25–27). NALM-6 cells were stained with DiIC1(5) at 40 nM concentration for 30 min in the dark as described for JC-1. The cells were analyzed using Vantage Becton Dickinson cell sorter equipped with HeNe laser with excitation at 635 nm and the fluorescence was collected at 666 nm.

[Cl-].[Cl-].[V+4].c1cc[cH-]c1.c1cc[cH-]c1 [VDC, VCp2Cl2]
IC50 [1]: 80.6 µM and 81 µM
IC50 [2]: 19 µM

bis(4,7-dimethyl-1,10-phenanthroline)sulfatooxovanadium(IV) [Compound 29]
fraction of DiIC1-negative cells with depolarized mitochondria (NALM-6 leukemia cells; 1 μM, 48 hours (vehicle 6.5%)): 91.5%
EC50 (NALM-6 leukemia cells; 24 hr treatment, read-out: average EC50 for depolarization of mitochondria (decreased DiIC1 staining), 24 hr): 3.6 µM
EC50 (NALM-6 leukemia cells; 48 hr treatment, read-out: average EC50 for depolarization of mitochondria (decreased DiIC1 staining), 48 hr): 0.3 µM
EC50 (NALM-6 leukemia cells; 72 hr treatment, read-out: average EC50 for depolarization of mitochondria (decreased DiIC1 staining), 72 hr): 0.08 µM
